Test results from paper PMC11212559 (Emerging Microbes & Infections, 2024).

Target: E1CTD (Monkeypox virus Zaire-96-I-16, UniProt Q8V4Y7)

## C[S+](CC[C@H](N)C(=O)O)C[C@H]1O[C@@H](n2cnc3c(N)ncnc32)[C@H](O)[C@@H]1O (stereo partly shown) [SAM]
  no detectable binding ability: the E1CTD also shows no detectable binding ability to SAM
